Key:
Aβ1–42 = target: T1, Aβ1–42 (Homo sapiens, UniProt P05067); assay: Inhibition of self-mediated Aβ1–42 aggregation, thioflavin T fluorescence assay; type: biochemical; conditions: ThT assay, compounds 20 μM, mean of n = 3 ± SD
T1 construct: Aβ1−42 (Sigma-Aldrich) was dissolved in NH4OH (1% v/v) to get a stock solution; purchased Sigma-Aldrich

[1] = Oxygen radical absorbance capacity (ORAC-FL) assay; conditions: compounds 5 µM, mean of n = 3 ± SD
Procedure: The solution of 2,2′-azobis- (amidinopropane) dihydrochloride (AAPH) was prepared to a final concentration of 40 mM. The mixture of the tested compounds (20 µL) and FL (120 μL; 70 nM) was pre-incubated for 10 min at 37°C, 60 µL of the AAPH solution was added. The fluorescence was recorded every minute for 120 min (excitation, 485 nm; emission, 520 nm). The antioxidant curves (fluorescence versus time) were normalized to the curve of the blank.
Where f0 is the initial fluorescence reading at 0 min and fi is the fluorescence reading at time i. The net AUC was calculated by the expression: AUCsample—AUCblank. Regression equations between net AUC and Trolox concentration were calculated. ORAC-FL value of the tested compound expressed as Trolox equivalents.

[2] = Parallel artificial membrane permeability assay for the blood-brain barrier (PAMPA-BBB); conditions: for Papp / P e: PAMPA; for pred (predicted BBB permeation): classified from PAMPA-BBB Pe; for P e: can cross the blood-brain barrier
SH-SY5Y [3] = assay: Cytotoxicity assay on SH-SY5Y cells; type: cell-based
Procedure: (§1) To further investigate the bioactivity of the compounds, cytotoxicity was evaluated on SH-SY5Y and BV2 cell lines (Figures 2A, B).
(§2) FIGURE 2 Cytotoxicity assay of 6b and 6c on SH-SY5Y (A) and BV2 (B). Protective effect of 6b and 6c against H2O2 induced SH-SY5Y oxidative stress (C).

BV2 = assay: Cytotoxicity assay on BV2 cells; type: cell-based; conditions: BV2, 20 μM
Procedure: as §1, §2

SH-SY5Y [4] = assay: Hydrogen peroxide induced oxidative stress (ROS, DCFH-DA probe) in SH-SY5Y cells; type: cell-based; conditions: SH-SY5Y treated with 400 μM hydrogen peroxide for 12 h
Source text: as §2
The effect of 6b and 6c on the oxidative stress of SH-SY5H cells induced by hydrogen peroxide was investigated using DCFH-DA as the fluorescent probe ([Xu et al., 2021]).

[5] = Metal-chelating study by UV spectrophotometry; type: physicochemical; conditions: for Metal-chelating property: 50 µM compound with Cu^2+, Zn^2+, Fe^2+ or Fe^3+ (50 µM), HEPES pH 7.4, UV-vis; for Inflection point, concentration ratio of Cu^2+ to compound: 50 µM compound, 0–100 µM copper ion, inflection point method
Procedure: To further evaluate multi-target anti-AD potential, the metal-chelating properties of 6b and 6c were determined by UV spectrophotometry ([Geng et al., 2012]; [Lu et al., 2013]; [Hu et al., 2019]). […] While co-incubated with Fe^3+ or Fe^2+, the intensity at 255 nm was in different degrees decreased. The same result occurred for 6c. […] Next, the chelation ratios of 6b and 6c to Cu^2+ were measured and calculated using the inflection point method (Figures 3B, D). The inflection point appears when the concentration ratio of compound Cu^2+ to 6b or 6c is 0.5, so it can be inferred that the chelation ratio of compound 6b and 6c to Cu^2+ is 2:1.
6b and 6c (50 µM) were incubated with CuSO4, FeSO4, FeCl3, or ZnCl2 (50 µM) in buffer (20 mM HEPES, 150 mM NaCl, pH 7.4) for 30 min, and the absorption spectras were recorded at room temperature. For the stoichiometry of the compound–Cu^2+ complex, a fixed amount of 6b and 6c (50 µM) was mixed with growing amounts of copper ion (0–100 µM), and the difference UV−vis spectra were examined to investigate the ratio of ligand/metal in the complex.

[6] = target: T2, Cu^2+-induced Aβ1-42 aggregation (Homo sapiens, UniProt P05067); assay: Cu^2+-induced Aβ1-42 aggregation, thioflavin T fluorometric detection; type: biochemical; conditions: ThT, compound stock 150 μM; for Disaggregation of Cu^2+-induced Aβ1-42 aggregation: Figure 4A; for Inhibition of Cu^2+-induced Aβ1-42 aggregation: Figure 4B
T2 construct: Aβ1-42 (Sigma-Aldrich A9810, 20 μM) was dissolved in HEPES buffer; purchased Sigma-Aldrich A9810
T2 sequence (P05067 672-713 limits assumed): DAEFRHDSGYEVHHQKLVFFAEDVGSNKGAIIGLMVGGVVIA
Procedure: To further detect the ability of compounds 6b, CQ and MT to disaggregate or inhibit the Cu^2+-induced Aβ1-42 aggregation, we conducted thioflavin T fluorometric detection ([Hu et al., 2019]).
Detection of the compounds for disaggregated and inhibitory effects on Cu^2+ induced Aβ1-42 aggregation. Aβ1-42 (Sigma-Aldrich A9810, 20 μM) was dissolved in HEPES buffer (pH = 6.6, containing 1% ammonium hydroxide). 10 μL of Aβ1-42 was previously incubated with or without Cu^2+ at 37°C for 3 days to pre-fibrillation. 10 μL of 6b, CQ, and MT (150 μM, in DMSO) were incubated before or after the pre-fibrillation of Aβ1-42 at 37°C for 1 day. After incubation, 170 μL of thioflavin T (5 μM, in 50 mM glycine-NaOH buffer) was added to mix well. After incubation for 5 min, the Aβ1-42 aggregation was detected by Microplate Reader (HITACHI, F-4700) with excitation/emission at 450/485 nm.

in vitro = conditions: PAMPA
[7] = 13 commercial drugs for validation, literature value; ref Bibl a; cited from earlier work

T1 sequence (P05067 672-713 limits assumed): as above

| Compound | inhibition at 20 µM (Aβ1–42) [%] | Papp [2] [×10⁻⁶ cm/s] | ORAC [1] [Trolox equivalents] | pred (predicted BBB permeation) [2] | P e [2] | other results |
| --- | --- | --- | --- | --- | --- | --- |
| COc1ccc2[nH]cc(CCNC(=O)c3ccc4cccc(O)c4n3)c2c1 [Compound 6b, 8-hydroxy-N-(2-(5-methoxy-1H-indol-3-yl)ethyl)quinoline-2-carboxamide] | 63.2 ± 2.02 | 6.91 ± 0.92 | 2.76 ± 0.01 | CNS+ (Compounds of high BBB permeation (CNS+) Pe>4.7) | > 4.7 | Cytotoxicity (SH-SY5Y [3]; 5 μM): no cytotoxicity; Cytotoxicity (SH-SY5Y [3]; 10 μM): slight toxicity; Cytotoxicity (BV2): no significant cytotoxicity; ROS production after pretreatment (SH-SY5Y [4]): reduced ROS production in a dose-dependent manner; Metal-chelating property [5]: possess metal-chelating properties; Inflection point, concentration ratio of Cu^2+ to compound [5]: 0.5; Disaggregation of Cu^2+-induced Aβ1-42 aggregation [6]: significantly disaggregated; Inhibition of Cu^2+-induced Aβ1-42 aggregation [6]: distinct inhibitory effect |
| COc1cc(/C=C/C(=O)CC(=O)/C=C/c2ccc(O)c(OC)c2)ccc1O [Curcumin, reference compound] | 52.9 ± 6.38 |  |  |  |  |  |
| Oc1ccc2[nH]cc(CCNCc3ccc4cccc(O)c4n3)c2c1 [Compound 3c, 2-(((2-(5-hydroxy-1H-indol-3-yl)ethyl)amino)methyl)quinolin-8-ol] | 40.2 ± 2.89 |  | 4.47 ± 0.18 | CNS+ (Compounds of high BBB permeation (CNS+) Pe>4.7) | > 4.7 | Papp (in vitro): 4.81 ± 0.87 ×10⁻⁶ cm/s |
| COc1ccc2[nH]cc(CCNC(C)=O)c2c1 [Melatonin] | 39 ± 9.35 |  |  |  |  | Disaggregation of Cu^2+-induced Aβ1-42 aggregation [6]: mild disaggregated effect; Inhibition of Cu^2+-induced Aβ1-42 aggregation [6]: weak inhibitory activity |
| CN(CCc1c[nH]c2ccccc12)Cc1ccc2cccc(O)c2n1 [Compound 4, 2-(((2-(1H-indol-3-yl)ethyl)(methyl)amino)methyl)quinolin-8-ol] | 52.5 ± 6.47 |  | 2.93 ± 0.15 | CNS+ (Compounds of high BBB permeation (CNS+) Pe>4.7) | > 4.7 | Papp (in vitro): 9.87 ± 0.66 ×10⁻⁶ cm/s |
| O=C(NCCc1c[nH]c2ccccc12)c1ccc2cccc(O)c2n1 [Compound 6a, N-(2-(1H-indol-3-yl)ethyl)-8-hydroxyquinoline-2-carboxamide] | 45.45 ± 0.41 | 7.71 ± 0.61 | 2.49 ± 0.22 | CNS+ (Compounds of high BBB permeation (CNS+) Pe>4.7) | > 4.7 |  |
| CN(C)CCCN1c2ccccc2Sc2ccc(Cl)cc21 [Chlorpromazinne, chlorpromazine, reference compound] |  | 6.63 ± 0.81 |  | CNS+ (Compounds of high BBB permeation (CNS+) Pe>4.7) |  |  |
| Oc1c(I)cc(Cl)c2cccnc12 [CQ, clioquinol, reference compound] | 30.8 ± 1.08 |  |  |  |  | Disaggregation of Cu^2+-induced Aβ1-42 aggregation [6]: significantly disaggregated |
| Oc1cccc2ccc(CNCc3c[nH]c4ccccc34)nc12 [Compound 3d, 2-((((1H-indol-3-yl)methyl)amino)methyl)quinolin-8-ol] | 20.5 ± 4.72 | 5.09 ± 1.32 | 2.60 ± 0.20 | CNS+ (Compounds of high BBB permeation (CNS+) Pe>4.7) | > 4.7 |  |
| CN1C(C(=O)Nc2ccccn2)=C(O)c2ccccc2S1(=O)=O [piroxicam] |  |  |  |  |  | Pe, Bibl [7]: 2.5 ×10⁻⁶ cm/s |
| O=C(NCCc1c[nH]c2ccc(O)cc12)c1ccc2cccc(O)c2n1 [Compound 6c, 8-hydroxy-N-(2-(5-hydroxy-1H-indol-3-yl)ethyl)quinoline-2-carboxamide] | 40.3 ± 2.09 | 2.96 ± 0.58 | 3.23 ± 0.02 | CNS± (Compounds of uncertain BBB permeation (CNS+/ -) 4.7>Pe>1.8) |  | Cytotoxicity (SH-SY5Y [3]; 5 μM): no cytotoxicity; Cytotoxicity (SH-SY5Y [3]; 10 μM): slight toxicity; Cytotoxicity (BV2): no significant cytotoxicity; ROS production after pretreatment (SH-SY5Y [4]): reduced ROS production in a dose-dependent manner; Metal-chelating property [5]: possess metal-chelating properties; Inflection point, concentration ratio of Cu^2+ to compound [5]: 0.5 |
| Oc1cccc2ccc(CNCCc3c[nH]c4ccccc34)nc12 [Compound 3a, 2-(((2-(1H-indol-3-yl)ethyl)amino)methyl)quinolin-8-ol] | 27.1 ± 5.01 |  | 3.50 ± 0.12 | CNS+ (Compounds of high BBB permeation (CNS+) Pe>4.7) | > 4.7 | Papp (in vitro): 8.08 ± 0.56 ×10⁻⁶ cm/s |
| COc1ccc2[nH]cc(CCNCc3ccc4cccc(O)c4n3)c2c1 [Compound 3b, 2-(((2-(5-methoxy-1H-indol-3-yl)ethyl)amino)methyl)quinolin-8-ol] | 18.2 ± 2.02 |  | 3.25 ± 0.10 | CNS+ (Compounds of high BBB permeation (CNS+) Pe>4.7) | > 4.7 | Papp (in vitro): 6.61 ± 0.22 ×10⁻⁶ cm/s |
| O=C(NCc1c[nH]c2ccccc12)c1ccc2cccc(O)c2n1 [Compound 6d, N-((1H-indol-3-yl)methyl)-8-hydroxyquinoline-2-carboxamide] | 19.2 ± 5.85 | 6.81 ± 1.13 | 2.32 ± 0.17 | CNS+ (Compounds of high BBB permeation (CNS+) Pe>4.7) | > 4.7 |  |
| CN(C)CCCN1c2ccccc2Sc2ccccc21 [promazine] |  |  |  |  |  | Pe, Bibl [7]: 8.8 ×10⁻⁶ cm/s |

The next lines start with results.

| inhibition at 20 µM (Aβ1–42) [%] | Papp [2] [×10⁻⁶ cm/s] | Compound | ORAC [1] [Trolox equivalents] | pred (predicted BBB permeation) [2] | P e [2] | other results |
| --- | --- | --- | --- | --- | --- | --- |
| 19.7 ± 2.06 | 1.12 ± 0.42 | COc1ccc2[nH]cc(CCNC(=O)c3ccc4cccnc4c3O)c2c1 [Compound 13b, 8-hydroxy-N-(2-(5-methoxy-1H-indol-3-yl)ethyl)quinoline-7-carboxamide] | 1.33 ± 0.02 | CNS− (Compounds of low BBB permeation (CNS -) Pe<1.8) |  |  |
| 34.9 ± 2.91 | 1.35 ± 0.25 | COc1ccc2[nH]cc(CC(=O)NCc3ccc(O)c4ncccc34)c2c1 [Compound 11b, N-((8-hydroxyquinolin-5-yl)methyl)-2-(5-methoxy-1H-indol-3-yl)acetamide] | 3.58 ± 0.12 | CNS− (Compounds of low BBB permeation (CNS -) Pe<1.8) |  |  |
| 47 ± 6.25 | 3.98 ± 0.45 | O=C(NCCc1c[nH]c2ccccc12)c1ccc2cccnc2c1O [Compound 13a, N-(2-(1H-indol-3-yl)ethyl)-8-hydroxyquinoline-7-carboxamide] | 1.06 ± 0.07 | CNS± (Compounds of uncertain BBB permeation (CNS+/ -) 4.7>Pe>1.8) |  |  |
| 38.6 ± 5.12 | 2.65 ± 0.46 | O=C(NCc1c[nH]c2ccccc12)c1ccc2cccnc2c1O [Compound 13c, N-((1H-indol-3-yl)methyl) -8-hydroxyquinoline-7-carboxamide] | 0.94 ± 0.02 | CNS± (Compounds of uncertain BBB permeation (CNS+/ -) 4.7>Pe>1.8) |  |  |
| 44.7 ± 5.18 | 2.82 ± 0.42 | O=C(Cc1c[nH]c2ccccc12)NCc1ccc(O)c2ncccc12 [Compound 11a, N-((8-hydroxyquinolin-5-yl)methyl)-2-(1H-indol-3-yl)acetamide] | 2.91 ± 0.16 | CNS± (Compounds of uncertain BBB permeation (CNS+/ -) 4.7>Pe>1.8) |  |  |

— paper PMC11059093 (Frontiers in Chemistry, 2024)
